Measurements reported in patent US20030170890A1, “Pathologically modified myocardial cell, production and use thereof” (priority 1999, published 2003).
No end group written: not given here.

Legend:
Type in all cases: cell-based
[1] = test system: cardiomyocytes from the neonatal rat; assay: Effect of inhibitors on DCMAG-1 translocation in the immunofluorescence test; details: cells stimulated with LIF; for effect on translocation of DCMAG-1 into the sarcomere (in words): ISO and ET-1; for % dotted pattern / % filamentous pattern / % in Z-bands: ISO and ET-1 (single dosage) 48 h, without or with 30 μM LY294002, 50 μM SB 203580, 15 nM Go 6976, 50 μM PD98059, ±SEM
Experimental: Neonatal rat cardiomyocytes were prepared as in Example 3 and seeded in a density of 1×10^5 cells per 1.5 cm well (reaction chamber in a cell culture dish). The cell culture dishes contained 1.5 cm cover glasses (Schubert und Weiβ) coated with 1% gelatin solution. The cells were incubated after 24 hours with DMEM and subsequently in maintenance medium with or without stimulus (LIF/ISO and ET-1, concentration as above for single dosage) for 48 hours.
In order to determine the signal transduction pathways required for translocation of DCMAG-1, the stimulated cells were incubated with inhibitors, namely 30 μM LY294002 (Sigma), 50 μM SB 203580 (Sigma), 15 nM Go 6976 (Alexis) or 50 μM PD98059 (NEB) for 48 h (after 24 h, the medium and inhibitors were renewed because the activity of the inhibitors was limited to 24 h in aqueous solution).
After 48 h, the cells were fixed with 4% paraformaldehyde, permeabilized with 0.2% Triton-X100 and stained with anti-DCMAG (polyclonal, own production, 1:500) or α-actinin (as control, Sigma, 1:500) and visualized with anti-mouse or anti-rabbit Cy3 (Jackson Labs, USA) in immunofluorescence. In order to measure the effect of the inhibitors, the cells were visually classified and counted.

[2] = test system: neonatal rat cardiomyocytes; assay: Stimulation of isolated neonatal rat cardiomyocytes, recruitment of DCMAG-1 into the sarcomere (immunofluorescence); details: for Sarcomere (recruitment of DCMAG-1), 1 × stimulation: 48 hours; for DCMAG-1 stain pattern of stimulated cells (in words): immunofluorescence, anti-DCMAG-1 antibody
Text: Primary cardiomyocytes were isolated from neonatal rats to carry out a hypertrophy experiment. The rats were from one to seven days old and were sacrificed by cervical dislocation. To isolate the cardiomyocytes, the ventricles of the contracting hearts were removed and dissociated using the “Neonatal Cardiomyocyte Isolation System” (Worthington Biochemicals Corporation, Lakewood, N.J.). […] The next day, the trypsin treatment was stopped by adding a trypsin inhibitor, and then a collagenase treatment was carried out at 37° C. for 45 minutes. The cells were dissociated by pipetting, passed through a “cell strainer” (70 μm) and centrifuged at 60×g twice for 5 min. The cell pellet was then taken up in 20 ml of conventional adhesion medium. Seeding took place at a density of 6×10^4 cells/cm^2 on gelatin-coated (Sigma, Deisenhofen) tissue culture dishes or cover glasses. The next morning, the medium was removed by aspiration and, after washing with DMEM (conventional cell culture medium) twice, replaced by cultivation medium.
The cells were stimulated two to six hours after the medium was changed. This was done by treating the cardiomyocytes with various stimulants or combinations of stimulants (see Table 1) for 48 hours, followed by analysis. It was possible to observe the progress of a single stimulation on the basis of the morphological changes in the cells (hypertrophy). Besides the morphological changes, immunofluorescence analyses were also used to determine hypertrophy parameters (DCMAG-1 recruitment).
For the immunofluorescence analysis, the stimulated cardiomyocytes were washed twice with cold PBS and fixed with 3% paraformaldehyde solution in PBS for 20 minutes. After washing again with cold PBS, the cells were incubated twice with 100 mM ammonium chloride in PBS, for 10 min each time, at room temperature. This was followed by a further washing step with cold PBS and incubation with 0.2% Triton-X 100 in PBS at room temperature for 5 min. Washing twice with 0.1% gelatin in PBS was followed by incubation with the first antibody at 37° C. in a “humidity chamber” known to the skilled worker. The first antibody (against the second domain of DCMAG-1) was diluted 1/500 in incubation solution (0.5% Tween-20; 0.5% BSA; in PBS). This was followed after one hour by three washing steps with PBS at room temperature for 5 min each time. The second antibody (obtained from goat, directed against rabbit, Cy3-coupled; Dianova, Hamburg) was diluted 1/200 in incubation solution and likewise incubated with the fixed cells at 37° C. for one hour. After three further washing steps with PBS at room temperature for 5 min each time, and a brief immersion in deionized water, the preparations were covered with a layer of Histosafe (Linaris, Wertheim-Bettingen) and applied to slides. Evaluation took place under a microscope (Axiovert 100S, Cy3 filter set, Zeiss, Göttingen).
Thus, for quantitative evaluation of these stimulation experiments, the recruitment of DCMAG-1 into the sarcomere was measured and categorized as follows: […]

[3] = test system: neonatal rat cardiomyocytes; assay: Stimulation of neonatal cardiomyocytes by phorbol ester, DCMAG-1 localization visually classified and counted; details: for % dotted pattern / % filamentous pattern / % in the sarcomere: 48 hours, ±SEM
Experimental: In these experiments, the cardiomyocytes were prepared as described above and seeded onto cover glasses. Stimulation with various concentrations of PMA was carried out for 48 hours, and the cells were fixed, stained as described above and investigated for DCMAG-1 translocation. The cells were visually classified and counted.

Rat cardiomyocytes = assay: Localization of DCMAG-1 after PMA or triple stimulation (colocalization with α-actinin / MHC); details: double staining with α-actinin or MHC
Experimental: Since PMA brings about translocation of DCMAG-1 into the sarcomeres just like activation of three signal transduction pathways via their receptors, the sarcomeric structures into which DCMAG-1 was translocated with PMA or triple stimulation was investigated. Colocalization experiments were carried out for this purpose. Rat cardiomyocytes were seeded as described above on cover glasses, and correspondingly stimulated, fixed and stained. With the stains, anti-DCMAG-1 antibody (polyclonal) was mixed with either monoclonal α-actinin (Sigma, 1:500) or monoclonal anti-myosin (heavy chain, MHC, Sigma, 1:500). The secondary antibodies used were FITC-anti-mouse (1:250) and Texas Red-anti-rabbit (1:50; both from Dianova).
Evaluation took place with the aid of a fluorescence microscope, a Fuji-CCD camera and Aida software or with the aid of a confocal microscope (Pascal from Zeiss) and LSM software (Zeiss).

[4] = single dosage: PE 100 μM, LIF 1 ng/ml, ET-1 10 nM, ISO 10 μM, IN 100 nM

Compound | % dotted pattern [1] [%] | % filamentous pattern [1] [%] | % in Z-bands [1] [%] | Sarcomere (recruitment of DCMAG-1), 1 × stimulation ([2]; 2 × single dosage) | Sarcomere (recruitment of DCMAG-1), 1 × stimulation [2, 4] | Sarcomere (recruitment of DCMAG-1), 1 × stimulation ([2]; 3 × single dosage) | Sarcomere (recruitment of DCMAG-1), 1 × stimulation ([2]; 4 × single dosage) | DCMAG-1 stain pattern of stimulated cells (in words) [2] | also measured
Cn1c2ccccc2c2c3c(c4c5ccccc5n(CCC#N)c4c21)CNC3=O [Gö, Gö 6976] | 29.0 ± 2.1 | 49.0 ± 0.0 | 22.0 ± 2.1 |  |  |  |  |  | effect on translocation of DCMAG-1 into the sarcomere (in words) [1]: reducing the translocation
insulin |  |  |  | (−) (fewer than 2 cells per cover glass) | (−) (fewer than 2 cells per cover glass) |  |  |  | 
CC(C)NCC(O)c1ccc(O)c(O)c1 (stereo not drawn) [ISO, isoproterenol] |  |  |  | (−) (fewer than 2 cells per cover glass) | (−) (fewer than 2 cells per cover glass) | (+) (2 to 5 cells per cover glass) | (+) (2 to 5 cells per cover glass) |  | Sarcomere (recruitment of DCMAG-1), 1 × stimulation ([2]; 5 × single dosage): (+) (2 to 5 cells per cover glass); recruitment of DCMAG-1 into the sarcomere (in words, summary of Table 1) ([2]; ISO: high concentrations): slight effect
ET-1: hormone / signal molecule stimulating the ETA and ETB endothelin receptors (CSCSSLMDKECVYFCHLDIIW; not fully specified (bridges); ends and bridges not checked; UniProt P05305 53-73, looked up) |  |  |  | (−) (fewer than 2 cells per cover glass) | (−) (fewer than 2 cells per cover glass) | (−) (fewer than 2 cells per cover glass) | (−) (fewer than 2 cells per cover glass) | filamentous structures | 
O=c1cc(N2CCOCC2)oc2c(-c3ccccc3)cccc12 [LY, LY294002] | 46.6 ± 5.3 | 41.2 ± 4.1 | 11.3 ± 2.0 |  |  |  |  |  | 
CCCCCCCCCCCCCC(=O)O[C@@H]1[C@@H](C)[C@@]2(O)[C@@H](C=C(CO)C[C@]3(O)C(=O)C(C)=C[C@@H]23)[C@@H]2C(C)(C)[C@]12OC(C)=O [PMA, phorbol myristate acetate] |  |  |  |  |  |  |  |  | translocation of DCMAG-1 protein (in words) ([3]; 1 nM PMA): translocated into the sarcomere; % dotted pattern ([3]; 1 nM PMA): 46.0 ± 2.0%; % filamentous pattern ([3]; 1 nM PMA): 20.0 ± 1.0%; % in the sarcomere ([3]; 1 nM PMA): 34.0 ± 3.0%; % dotted pattern ([3]; 100 nM PMA): 47.0 ± 4.0%; % filamentous pattern ([3]; 100 nM PMA): 13.0 ± 2.0%; % in the sarcomere ([3]; 100 nM PMA): 40.0 ± 2.0%; sarcomeric structure into which DCMAG-1 is translocated (Rat cardiomyocytes): translocates into the M-line
LIF: cytokine acting via the LIF receptor, assigned to the interleukin-6 family |  |  |  | (−) (fewer than 2 cells per cover glass) | (−) (fewer than 2 cells per cover glass) |  |  | distributed uniformly over the sarcoplasm | shape of stimulated cells ([2]; single stimulation): elongate shape
COc1cccc(-c2cc(=O)c3ccccc3o2)c1N [PD, PD98059] | 58.5 ± 10.7 | 31.6 ± 7.4 | 10.1 ± 3.4 |  |  |  |  |  | effect on translocation of DCMAG-1 into the sarcomere (in words) [1]: reducing the translocation
CNC[C@H](O)c1cccc(O)c1 [PE, phenylephrine] |  |  |  | (−) (fewer than 2 cells per cover glass) | (−) (fewer than 2 cells per cover glass) | (−) (fewer than 2 cells per cover glass) | (−) (fewer than 2 cells per cover glass) | distributed uniformly over the sarcoplasm | Sarcomere (recruitment of DCMAG-1), 1 × stimulation ([2]; 5 × single dosage): (−) (fewer than 2 cells per cover glass)
C[S+]([O-])c1ccc(-c2nc(-c3ccncc3)c(-c3ccc(F)cc3)[nH]2)cc1 (stereo not drawn) [SB, SB 203580] | 22.5 ± 5.3 | 35.5 ± 0.3 | 41.0 ± 4.9 |  |  |  |  |  | 
